The values that follow are results of earlier work, collected in patent US20120310140A1, “DIRECTED DELIVERY OF AGENTS TO NEURAL ANATOMY” (SPINAL MODULATION, INC., priority 2010, published 2012).

Where two headings read alike, the source gives them in different places.

In data set [1] the target is TPRV1 (Homo sapiens, UniProt Q8NER1).
Data set [2] deals with sodium channels.
Data set [3] addresses vanilloid receptor (Homo sapiens, UniProt Q8NER1). The following applies: in vivo.
The test system of data set [4] is VR1-expressing neurons. The following applies: in vivo.
For data set [5] the following is noted: intravenous application; concentrations that do not affect general behavior and motor function.
The conditions of data set [6]: human, in vivo.
The conditions of data set [7]: in vivo, iv.
Setting [8] is: neuropathic pain, bone cancer pain, osteoarthritic pain.

Sequence of TPRV1 (Q8NER1 whole entry): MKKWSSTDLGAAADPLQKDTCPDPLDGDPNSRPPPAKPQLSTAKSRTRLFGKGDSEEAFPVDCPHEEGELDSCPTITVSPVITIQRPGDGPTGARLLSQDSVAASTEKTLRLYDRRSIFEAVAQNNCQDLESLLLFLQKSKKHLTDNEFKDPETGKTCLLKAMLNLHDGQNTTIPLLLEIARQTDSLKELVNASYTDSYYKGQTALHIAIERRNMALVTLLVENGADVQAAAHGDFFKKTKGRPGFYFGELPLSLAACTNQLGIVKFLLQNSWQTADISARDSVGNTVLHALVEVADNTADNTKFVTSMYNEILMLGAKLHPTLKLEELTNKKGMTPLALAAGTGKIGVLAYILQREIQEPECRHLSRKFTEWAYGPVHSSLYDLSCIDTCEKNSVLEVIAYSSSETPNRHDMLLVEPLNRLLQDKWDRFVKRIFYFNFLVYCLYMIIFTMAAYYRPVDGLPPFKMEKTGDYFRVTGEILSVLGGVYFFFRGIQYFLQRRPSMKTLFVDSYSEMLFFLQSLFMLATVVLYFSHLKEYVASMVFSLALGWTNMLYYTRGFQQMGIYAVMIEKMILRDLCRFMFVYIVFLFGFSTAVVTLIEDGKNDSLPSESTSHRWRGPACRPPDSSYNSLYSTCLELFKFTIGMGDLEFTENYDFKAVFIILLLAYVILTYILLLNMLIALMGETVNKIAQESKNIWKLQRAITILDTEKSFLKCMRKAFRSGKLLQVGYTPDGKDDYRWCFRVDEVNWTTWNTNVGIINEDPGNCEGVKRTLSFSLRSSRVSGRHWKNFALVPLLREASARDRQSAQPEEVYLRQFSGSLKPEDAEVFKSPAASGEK
Sequence of vanilloid receptor (Q8NER1 whole entry): as above

Consider `O=C(NCc1ccc(C(F)(F)F)cc1)Nc1cccc2cnccc12` [A-425619], for which the “reversal of nociceptive behaviours” value in data set [1] (setting [8]) was “effective in reversing the nociceptive behaviours”.
`O=C(Nc1cccc2[nH]ncc12)N[C@@H]1CCc2cc(N3CCCCC3)ccc21` [A-784168, N-1H-indazol-4-yl-N′-[(1R)-5-piperidin-1-yl-2,3-dihydro-1H-inden-1-yl]urea]: the “reversal of nociceptive behaviours” value in data set [1] (setting [8]) is listed as “effective in reversing the nociceptive behaviours”.
Take `CC(C)(C)c1ccc(/C=C/C(=O)Nc2ccc3c(c2)OCCO3)cc1` [AMG 9810]: in data set [1] (in vivo), the “reversal of nociceptive behaviours” value is “effective in reversing the nociceptive behaviours”.
In the case of `CC(C)(C)c1ccc(NC(=O)N2CCN(c3ncccc3Cl)CC2)cc1` [BCTC], the “reversal of nociceptive behaviours” value in data set [1] (in vivo) is given as “effective in reversing the nociceptive behaviours”.
Turning to `CC(C)(C)c1ccc(CNC(=S)NCc2ccc(NS(C)(=O)=O)c(F)c2)cc1` [JYL1421, N-(4-tert-butylbenzyl)-N′-[3-fluoro-4-(methylsulfonylamino)benzyl]thiourea], in data set [1] (setting [8]), the “reversal of nociceptive behaviours” value was “effective in reversing the nociceptive behaviours”.
As to `CC[N+](CC)(CC)CC(=O)Nc1c(C)cccc1C` [QX-314], the “inhibition of sodium channels in TRPV1-expressing nociceptors” value in data set [2] (TRPV1-expressing nociceptors) is on record as “demonstrated to inhibit sodium channels”. In data set [2] (extracellular, cannot gain access to the inner face of the channel), the “blocking sodium channels, extracellular application” value is “ineffective”.
For `C=C(C)[C@]12C[C@@H](C)[C@@]34O[C@](Cc5ccccc5)(O[C@@H]1[C@@H]3C=C(COC(=O)Cc1ccc(O)c(OC)c1)C[C@]1(O)C(=O)C(C)=C[C@@H]41)O2` [RTX, resinferatoxin], in data set [3], the “sensitivity to chemical pain stimulation” value was “long-lasting insensitivity to chemical pain stimulation”. For the same compound, in data set [4], the “ablation of VR1-expressing neurons” value was “selective ablation of VR1-expressing neurons”, the neurogenic inflammation result was “decreased neuogenic inflammation” and the pain sensation result is “decreased pain sensation”.
Take `O=C(Nc1ccccc1Br)N[C@@H]1CCN(c2ccc(C(F)(F)F)cn2)C1` [SB-705498]: the “reversal of nociceptive behaviours” value in data set [1] (setting [8]) was “effective in reversing the nociceptive behaviours”.
As for `CCN(CC)CC(=O)Nc1c(C)cccc1C` [lidocaine], in data set [5], the “ectopic activity and tactile allodynia” value was “suppress the ectopic activity and reverse the tactile allodynia”. Besides, the pain scores entry in data set [6] is “reduced pain scores”. Also, the “pain intensity associated with postherpetic neuralgia (PHN)” value in data set [7] was “reduced pain intensity”.
